The experiment has as its system tobacco budworm (Heliothis virescens [Fabricius]). The experiment is described as follows: Diet test: test chemical incorporated into artificial diet of tobacco budworm larvae, 5-day exposure. The experiment is classed as in vivo. The following applies: for IC50 / LC50 / mortality at 100 µM / pest or weed control at 100 µM: Heliothis virescens, 120 h; for IC50: negative log of the concentration that provides 50% growth inhibition, by linear regression, read-out: pl50 (converted); for IC50 / LC50 / pest or weed control at 100 µM / Percent Growth Inhibition: 5 days, * = average of more than one test; for LC50: negative log of the concentration that provides 50% mortality, read-out: pLC50 (converted); for mortality at 100 µM / pest or weed control at 100 µM: feed or water; for mortality at 100 µM: read-out: Percent Mortality; for pest or weed control at 100 µM / Percent Growth Inhibition: rate of application 4 (negative log of molar concentration in the diet), second instar larvae, 25°C; for pest or weed control at 100 µM: read-out: Percent Growth Inhibition. Here is the method: Candidate insecticides were incorporated into an artificial diet for evaluation of insecticidal activity against the tobacco budworm (Heliothis virescens [Fabricius]) in the following manner. Stock solutions of test chemical in dimethyl sulfoxide, ranging from […], were prepared for each rate of application. One hundred microliters of each of the stock solutions was manually stirred into 50 mL of a molten (65-70°C) wheat germ-based artificial diet. The 50 mL of molten diet containing the test chemical was poured evenly into twenty wells in the outer two rows on each side of a twenty-five well, five row plastic tray. (Each well in the tray was about 1 cm in depth, with an opening of 3 cm by 4 cm at the lip.) Molten diet containing only dimethyl sulfoxide at the levels used in the test chemical-treated diet was poured into the five wells in the third (center) row of the tray. Each tray therefore contained one test chemical at a single rate of application, together with an untreated control. The rates of application, expressed as the negative log of the molar concentration, and the corresponding concentrations of the stock solution prepared for each rate are shown below:
Single second instar tobacco budworm larvae, selected at a stage of growth at which they uniformly weigh about 5 mg each, were placed in each well. Upon completion of infestation, a sheet of clear plastic was heat-sealed over the top of the tray by use of a common household flat.iron. The trays were held at 25°C at 60% relative humidity for five days in a growth chamber. Lighting was set at 14 hours of light and 10 hours of darkness. After the 5-day exposure period, mortality counts were taken, and the surviving insects were weighed. From the weights of the surviving insects that fed on the treated diet as compared to those insects that fed on the untreated diet, the percent growth inhibition caused by each test chemical was determined. […] Also, where possible, the negative log of the concentration of the test chemical that provided 50% mortality (pLC50) was determined.

Structures are written as SMILES.

Take `COc1ccc(CCN2CCC(C(O)(c3ccc(OC(F)(F)F)cc3)c3ccc(OC(F)(F)F)cc3)CC2)cc1` [Compound 2, N-[2-(4-methoxyphenyl)ethyl]-4-[bis(4-trifluoromethoxyphenyl)hydroxymethyl]piperidine]: the IC50 was 2.51 µM; the LC50 is > 100 µM; the mortality – broadly, the percentage killed – at 100 µM amounted to 25%; the pest or weed control at 100 µM was 98%.

Regarding `CC(=O)Nc1ccc(CN2CCC(C(O)(c3ccc(OC(F)(F)F)cc3)c3ccc(OC(F)(F)F)cc3)CC2)cc1` [Compound 3, N-[4-(methylcarbonylamino)phenylmethyl]-4-[bis(4-trifluoromethoxyphenyl)hydroxymethyl]piperidine], the IC50 was 20 µM, the mortality at 100 µM is 0% and the pest or weed control at 100 µM was found to be 95%.

For `Cn1ccc(-c2ccc(CN3CCC(C(O)(c4ccc(OC(F)(F)F)cc4)c4ccc(OC(F)(F)F)cc4)CC3)cc2)c1` [Compound 4], the mortality at 100 µM came to 100%.

As for `Cc1cc(C)n(-c2ccc(CN3CCC(C(O)(c4ccc(OC(F)(F)F)cc4)c4ccc(OC(F)(F)F)cc4)CC3)cc2)n1` [Compound 5], the mortality at 100 µM is 100%.

Turning to `Cc1noc(-c2ccc(CN3CCC(C(O)(c4ccc(OC(F)(F)F)cc4)c4ccc(OC(F)(F)F)cc4)CC3)cc2)n1` [Compound 6], the mortality at 100 µM amounted to 100%.

As to `Cn1nnnc1-c1ccc(CN2CCC(C(O)(c3ccc(OC(F)(F)F)cc3)c3ccc(OC(F)(F)F)cc3)CC2)cc1` [Compound 8, N-[4-(1-methyltetrazol-5-yl)phenylmethyl]-4-[bis(4-trifluoromethoxyphenyl)hydroxymethyl]piperidine], the IC50 is 31.6 µM, the mortality at 100 µM is 0% and the pest or weed control at 100 µM came to 79%.

On to `Cn1ncn(-c2ccc(CN3CCC(C(O)(c4ccc(C(F)(F)F)cc4)c4ccc(C(F)(F)F)cc4)CC3)cc2)c1=O` [Compound 12, N-[4-(4,5-dihydro-1-methyl-5-oxo-1H-1,2,4-triazol-4-yl)phenylmethyl]-4-[bis(4-trifluoromethylphenyl)hydroxymethyl]piperidine], for which the IC50 was 3.98 µM, the LC50 is > 100 µM, the mortality at 100 µM turned out to be 35% and the pest or weed control at 100 µM is 98%.

With `OC(c1ccc(OC(F)(F)F)cc1)(c1ccc(OC(F)(F)F)cc1)C1CCN(Cc2ccc(-c3csnn3)cc2)CC1` [Compound 14], the IC50 was 3.16 µM, the LC50 was 31.6 µM, the mortality at 100 µM came to 100% and the “Percent Growth Inhibition” value stood at 99%.

Consider `Cn1nnc(-c2ccc(C[N+]3([O-])CCC(C(O)(c4ccc(OC(F)(F)F)cc4)c4ccc(OC(F)(F)F)cc4)CC3)cc2)n1` (centres unmarked) [Compound 15], for which the mortality at 100 µM was 100%.

On to `CC(C)c1cnc(-c2ccc(CN3CCC(C(O)(c4ccc(C(F)(F)F)cc4)c4ccc(C(F)(F)F)cc4)CC3)cc2)o1` [Compound 19], for which the mortality at 100 µM is 90%.

For `O=C1OCCN1c1ccc(CN2CCC(C(O)(c3ccc(C(F)(F)F)cc3)c3ccc(C(F)(F)F)cc3)CC2)cc1` [Compound 20], the mortality at 100 µM turned out to be 10%.

For the molecule `O=C1OCCN1c1ccc(C[N+]2([O-])CCC(C(O)(c3ccc(C(F)(F)F)cc3)c3ccc(C(F)(F)F)cc3)CC2)cc1` (centres unmarked) [Compound 21], the mortality at 100 µM stood at 10%.

For the molecule `CC1CN(c2ccc(CN3CCC(C(O)(c4ccc(C(F)(F)F)cc4)c4ccc(C(F)(F)F)cc4)CC3)cc2)C(=O)O1` (centres unmarked) [Compound 22], the mortality at 100 µM stood at 35%.

For `CC1CN(c2ccc(C[N+]3([O-])CCC(C(O)(c4ccc(C(F)(F)F)cc4)c4ccc(C(F)(F)F)cc4)CC3)cc2)C(=O)O1` (centres unmarked) [Compound 23], the mortality at 100 µM turned out to be 65%.

For `CC1CN(C(=O)c2ccc(CN3CCC(C(O)(c4ccc(C(F)(F)F)cc4)c4ccc(C(F)(F)F)cc4)CC3)cc2)C(=O)O1` (centres unmarked) [Compound 24], the IC50 is 31.6 µM, the LC50 was > 316 µM, the mortality at 100 µM turned out to be 0% and the “Percent Growth Inhibition” value worked out at 86%.

As for `Cn1cnc(-c2ccc(CN3CCC(C(O)(c4ccc(C(F)(F)F)cc4)c4ccc(C(F)(F)F)cc4)CC3)cc2)n1` [Compound 27], the mortality at 100 µM was determined as 100%.

Take `Cn1cnc(-c2ccc(C[N+]3([O-])CCC(C(O)(c4ccc(C(F)(F)F)cc4)c4ccc(C(F)(F)F)cc4)CC3)cc2)n1` (centres unmarked) [Compound 28]: the mortality at 100 µM turned out to be 100%.

As for `OC(c1ccc(C(F)(F)F)cc1)(c1ccc(C(F)(F)F)cc1)C1CCN(Cc2ccc(Oc3nsnc3Cl)cc2)CC1` [Compound 29], the mortality at 100 µM was found to be 60%.

With `[O-][N+]1(Cc2ccc(Oc3nsnc3Cl)cc2)CCC(C(O)(c2ccc(C(F)(F)F)cc2)c2ccc(C(F)(F)F)cc2)CC1` (centres unmarked) [Compound 30], the mortality at 100 µM worked out at 40%.

`CC(C)n1nnc(-c2ccc(CN3CCC(C(O)(c4ccc(C(F)(F)F)cc4)c4ccc(C(F)(F)F)cc4)CC3)cc2)n1` [Compound 35]: the mortality at 100 µM was determined as 100%.

With `CC(C)n1nnc(-c2ccc(C[N+]3([O-])CCC(C(O)(c4ccc(C(F)(F)F)cc4)c4ccc(C(F)(F)F)cc4)CC3)cc2)n1` (centres unmarked) [Compound 36], the mortality at 100 µM turned out to be 100%.

For `CC(C)(C)n1nnc(-c2ccc(CN3CCC(C(O)(c4ccc(C(F)(F)F)cc4)c4ccc(C(F)(F)F)cc4)CC3)cc2)n1` [Compound 37], the mortality at 100 µM worked out at 100%.

Consider `OC(c1ccc(C(F)(F)F)cc1)(c1ccc(C(F)(F)F)cc1)C1CCN(Cc2ccc(-c3nnn(C(F)F)n3)cc2)CC1` [Compound 38], for which the IC50 is 0.631 µM, the LC50 was 2.51 µM, the mortality at 100 µM was 100% and the “Percent Growth Inhibition” value is recorded as 100%.

With `[O-][N+]1(Cc2ccc(-c3nnn(C(F)F)n3)cc2)CCC(C(O)(c2ccc(C(F)(F)F)cc2)c2ccc(C(F)(F)F)cc2)CC1` (centres unmarked) [Compound 39], the mortality at 100 µM is 100%.

In the case of `OC(c1ccc(C(F)(F)F)cc1)(c1ccc(C(F)(F)F)cc1)C1CCN(Cc2ccc(-c3nnn(CCCF)n3)cc2)CC1` [Compound 40], the IC50 is 0.631 µM, the LC50 is 3.98 µM, the mortality at 100 µM was determined as 100% and the “Percent Growth Inhibition” value is listed as 100%.

Consider `COCn1nnc(-c2ccc(CN3CCC(C(O)(c4ccc(C(F)(F)F)cc4)c4ccc(C(F)(F)F)cc4)CC3)cc2)n1` [Compound 41], for which the mortality at 100 µM stood at 100%.

Consider `COCn1nnc(-c2ccc(C[N+]3([O-])CCC(C(O)(c4ccc(C(F)(F)F)cc4)c4ccc(C(F)(F)F)cc4)CC3)cc2)n1` (centres unmarked) [Compound 42], for which the mortality at 100 µM was 100%.

As for `OC(c1ccc(C(F)(F)F)cc1)(c1ccc(C(F)(F)F)cc1)C1CCN(Cc2ccc(-c3ccccn3)cc2)CC1` [Compound 43], the IC50 was ≤ 0.316 µM, the LC50 is 3.16 µM, the mortality at 100 µM was 100% and the “Percent Growth Inhibition” value is listed as 100%.

For the molecule `[O-][N+]1(Cc2ccc(-c3ccccn3)cc2)CCC(C(O)(c2ccc(C(F)(F)F)cc2)c2ccc(C(F)(F)F)cc2)CC1` (centres unmarked) [Compound 44], the mortality at 100 µM was determined as 100%.

On to `[O-][n+]1ccccc1-c1ccc(CN2CCC(C(O)(c3ccc(C(F)(F)F)cc3)c3ccc(C(F)(F)F)cc3)CC2)cc1` [Compound 45], for which the mortality at 100 µM worked out at 100%.

`[O-][n+]1ccccc1-c1ccc(C[N+]2([O-])CCC(C(O)(c3ccc(C(F)(F)F)cc3)c3ccc(C(F)(F)F)cc3)CC2)cc1` (centres unmarked) [Compound 46]: the mortality at 100 µM was determined as 100%.

The record behind these values is EP0844825B1, “INSECTICIDAL N-(SUBSTITUTED ARYLMETHYL)-4- BIS(SUBSTITUTED PHENYL OR PYRIDYL)METHYL]PIPERIDINES” (FMC CORPORATION, priority 1995, dated 1996).
